# Source: article PMC12811501, “A plant-derived antimicrobial peptide with multiple mechanisms of action exhibiting antibacterial and antibiofilm activities comparable to or superior to polymyxin B” (Current Research in Microbial Sciences, 2025)
# Like-named read-outs stand apart in the source and are kept apart here. Residues, ends and D or L forms follow the SMILES beside them. No end group written: not given here.
# Columns and labels:
# E. coli = test: microbe, parasite or virus in culture; conditions: for FBC-A: (MBC of Drug A in combination)/(MBC of Drug A alone), combination with NCR169C17–38 (Drug B), checkerboard; for FBC-A / FBC-B / FBC / Action / FBC-A (µM): concentration of Drug A for the indicated action / FBC-B (µM): concentration of Drug B for the indicated action: E. coli; for FBC-A / FBC-A (µM): concentration of Drug A for the indicated action: 3 h 37 °C; for FBC-B: (MBC of NCR169C17–38 in combination)/(MBC alone), value refers to NCR169C17–38 (Drug B) combined with the Drug A; for MBC: Escherichia coli, read-out: Drug A MBC; for FBC: FBC index = FBC-A + FBC-B, Drug A combined with NCR169C17–38; for Action: interaction of Drug A with NCR169C17–38 by FBC index; for FBC-A (µM): concentration of Drug A for the indicated action / FBC-B (µM): concentration of Drug B for the indicated action: value in brackets; for FBC-A (µM): concentration of Drug A for the indicated action: Drug A in combination with NCR169C17–38, checkerboard; for FBC-B (µM): concentration of Drug B for the indicated action: concentration of NCR169C17–38 (Drug B) combined with Drug A
# Description: Streptomycin was tested at concentrations ranging from 25 μM to 0.4 μM, meropenem from 200 μM to 3.1 μM, and polymyxin B from 6.3 μM to 0.1 μM. NCR335N1–19 was tested in a concentration range from 3.1 μM to 0.05 μM, while NCR335C13–33 from 12.5 μM to 0.2 μM. […] The initial E. coli density in each well were adjusted to OD600 = 0.01 corresponding to ∼10^6 bacteria/ml. […] The effectiveness of combination treatments was measured using the fractional bactericidal concentration (FBC) index, which is a metric used to assess the interaction between antimicrobial agents, determining whether their combined effect is synergistic, additive, or antagonistic. First, the MBC values of polymyxin B, meropenem, streptomycin, NCR335N1–19, and NCR335C13–33 were determined in E. coli. Subsequently, their combinations with NCR169C17–38 were examined using the FBC index. FBC = FBCA + FBCB. FBCA = (MBCA in combination) / (MBCA alone); FBCB = (MBCB in combination) / (MBCB alone). Experiments were done in three biological replicates.
# The use of multiple antimicrobial agents can simultaneously target different physiological pathways in microbial cells, reducing the likelihood of resistance development and increasing treatment efficacy. To explore this strategy, we assessed the combined antibacterial effects of the NCR169C17–38 peptide with several antibiotics - specifically polymyxin B, meropenem, and streptomycin - against E. coli. […] Combination treatments were then performed using the standard checkerboard titration method, with each agent co-administered with NCR169C17–38.
# Acinetobacter baumannii = test: microbe, parasite or virus in culture; assay type: cell-based; conditions: A. baumannii; for MBC: 24 h of treatment in MHB (method: 1/10 MHB), detected at the end of the biofilm inhibition test, read-out: MBC, Inhibition test after 24 h
# Description: For the biofilm inhibition assay the antimicrobial activity test was done in 1/10 MHB using A. baumannii treated with the respective dilutions of NCR169C17–38, meropenem or polymixin B for 24 h. After taking the 5 μl samples at the end of the treatment and placed on LB agar to detect bacterial growth, the rest of the grown bacterial suspensions were discarded from the plate and the remaining biofilm on the walls of the plate was then washed three times with sterile water and stained using 1 % Crystal Violet (CV) for 15 min to visualize the produced biofilm. The non-adherent CV dye was then removed by washing with water three times. The plate was left for complete drying, then the biofilm-bound CV dye was dissolved in 200 µl of 30 % acetic-acid with shaking over 15 min. The absorbance was measured at OD550 using a HIDEX Plate Reader (Hidex Sense Microplate Reader with Plate Reader Software version 5064, Hidex, Finland). All measurements were repeated three times.
# We examined the capacity of NCR169C17–38 to inhibit biofilm formation by Acinetobacter baumannii, a pathogen well known for its robust biofilm production and high level of antibiotic resistance. […] Additionally, at the end of the experiment we determined the quantity of the biofilm and thereby evaluated their ability to inhibit biofilm formation during culturing the bacteria in the presence of different concentrations of the agents (Fig. 1.A). We tested concentrations of NCR169C17–38 ranging from 25 μM to 0.4 μM, meropenem from 100 μM to 1.6 μM and polymyxin B from 3.1 μM to 0.05 μM.
# [1] = tested on: Acinetobacter baumannii pre-formed biofilm; test: microbe, parasite or virus in culture; assay type: cell-based; conditions: for degradation of pre-formed biofilm: A. baumannii biofilm pre-formed 24 h, 24 h of treatment, Crystal Violet OD550; for MBC: A. baumannii biofilm pre-formed 24 h in MHB
# Description: For the biofilm eradication assay the difference was at the beginning of the experiments when bacteria were pre-cultured for 24 h or 72 h in MHB with a starting OD600 = 0.01. Then bacterial suspensions were removed from the wells followed by washing three times with 200 µl of 1/2 MHB. Subsequently fresh 1/10 MHB was added to the wells containing the respective dilutions of NCR169C17–38, meropenem or polymixin B and the treatment lasted either 3 h or 24 h. Experiments were done in three biological replicates.
# To assess whether the NCR169C17–38 peptide or the tested antibiotics could eradicate pre-formed biofilms, A. baumannii was first cultured in MHB for 24 h, then treated with NCR169C17–38, meropenem or polymyxin B for either 3 h or 24 h, using the same concentration range as in the previous experiment. Both bacterial survival within the pre-formed biofilm and the amount of residual biofilm were assessed. […] In contrast, neither of the two antibiotics completely eliminated the bacteria within the tested concentration range. […] This 24 h of treatment was repeated on mature biofilm (pre-formed for 72 h) and the results were very similar (Supplementary Fig. 1.).
# [2] = assay type: physicochemical; conditions: for solubility / visible turbidity upon peptide addition: pH 7.4
Molecule,FBC-A (E. coli),FBC-B (E. coli),FBC (E. coli),Action (E. coli),FBC-A (µM): concentration of Drug A for the indicated action (E. coli),FBC-B (µM): concentration of Drug B for the indicated action (E. coli),also measured
C[C@@H](O)[C@H]1C(=O)N2C(C(=O)O)=C(S[C@@H]3CN[C@H](C(=O)N(C)C)C3)[C@H](C)[C@H]12 [Meropenem],0.25,0.25,0.5,Synergism (< 0.5: synergism),50 µM,0.4 µM,"MBC (E. coli; 3 h): 200 µM; inhibition of biofilm formation (Crystal Violet, OD550) (Acinetobacter baumannii; 24 h treatment, NCR169C17–38 25-0.4 μM, meropenem 100-1.6 μM, polymyxin B 3.1-0.05 μM): remaining effective even at lower doses; MBC (Acinetobacter baumannii; Acinetobacter baumannii): 50 µM; degradation of pre-formed biofilm [1]: successful even at sub-MBC level; MBC ([1]; Acinetobacter baumannii, 3 h treatment (method: 1/10 MHB), read-out: MBC, Eradication test after 3 h): > 100 µM; MBC ([1]; Acinetobacter baumannii, 24 h treatment (method: 1/10 MHB), read-out: MBC, Eradication test after 24 h): > 100 µM"
CC[C@H](C)[C@H](NC(=O)CNC(=O)[C@H](CS)NC(=O)[C@H](Cc1ccc(O)cc1)NC(=O)[C@H](CCCCN)NC(=O)[C@@H](NC(=O)[C@H](Cc1c[nH]cn1)NC(=O)CNC(=O)[C@@H](NC(=O)[C@H](CC(=O)O)NC(=O)[C@@H](N)CCC(=O)O)[C@@H](C)CC)[C@@H](C)CC)C(=O)N[C@H](C(=O)N[C@@H](CC(=O)O)C(=O)N[C@@H](CC(=O)O)C(=O)N[C@@H](CS)C(=O)N[C@@H](Cc1ccc(O)cc1)C(=O)N[C@@H](CCCCN)C(=O)N[C@@H](CO)C(=O)N[C@@H](CCCCN)C(=O)N[C@@H](CCCCN)C(=O)N1CCC[C@H]1C(=O)N[C@@H](CC(C)C)C(=O)N[C@@H](Cc1ccccc1)C(=O)N[C@@H](CCCCN)C(=O)N[C@H](C(=O)N[C@@H](Cc1c[nH]c2ccccc12)C(=O)N[C@@H](CCCCN)C(=O)N[C@@H](CS)C(=O)N[C@H](C(=O)N[C@@H](CCC(=O)O)C(=O)N[C@@H](CC(N)=O)C(=O)N[C@H](C(=O)N[C@@H](CS)C(=O)N[C@H](C(=O)N[C@@H](CC(C)C)C(=O)N[C@@H](Cc1c[nH]c2ccccc12)C(=O)N[C@@H](Cc1ccc(O)cc1)C(=O)N[C@@H](CCCCN)C(N)=O)C(C)C)C(C)C)C(C)C)[C@@H](C)CC)C(C)C [NCR169] (H-EDIGHIKYCGIVDDCYKSKKPLFKIWKCVENVCVLWYK-NH2),,,,,,,solubility / visible turbidity ([2]; pH 5.8): eliminating visible turbidity; solubility / visible turbidity upon peptide addition [2]: visible white turbidity
CC[C@H](C)[C@H](NC(=O)[C@@H]1CCCN1C(=O)[C@@H](NC(=O)[C@H](CS)NC(=O)[C@H](Cc1ccc(O)cc1)NC(=O)[C@H](CO)NC(=O)[C@H](CCCCN)NC(=O)[C@H](CCCNC(=N)N)NC(=O)[C@H](CS)NC(=O)[C@H](CCCNC(=N)N)NC(=O)[C@@H](NC(=O)[C@H](CC(N)=O)NC(=O)[C@H](C)NC(=O)[C@H](CCCNC(=N)N)NC(=O)[C@H](CCCNC(=N)N)NC(=O)[C@H](CC(C)C)NC(=O)[C@H](CCCCN)NC(=O)[C@@H]1CCCN1C(=O)[C@H](CS)NC(=O)[C@H](CC(=O)O)NC(=O)[C@@H](N)CCCCN)C(C)C)C(C)C)C(N)=O [NCR335C13–33] (H-KDCPKLRRANVRCRKSYCVPI-NH2; N-terminus and C-terminus assumed),0.5,0.03,0.5,Synergism (< 0.5: synergism),6.25 µM,0.048 µM,Drug A MBC (E. coli; 3 h): 12.5 µM
[H]/N=C(/N)N[C@H]1[C@H](O)[C@@H](O)[C@H](O[C@@H]2O[C@@H](C)[C@](O)(C=O)[C@H]2O[C@@H]2O[C@@H](CO)[C@H](O)[C@@H](O)[C@@H]2NC)[C@@H](N/C(N)=N\[H])[C@@H]1O [Streptomycin],0.5,0.5,1,Additive (0.5 < FBC < 1.0: additive),,0.8 µM,MBC (E. coli; 3 h): 3.12 µM
"EDIGHIKYSGIVDDSYKSKKPLFKIWKSVENVSVLWYK-NH2 [NCR169-C9,15,28,33/S]",,,,,,,solubility / visible turbidity upon peptide addition [2]: no visible turbidity
Polymyxin B,0.125,0.25,0.38,Synergism (< 0.5: synergism),0.1 µM,0.4 µM,"Drug A MBC (E. coli; Drug A alone, E. coli ~10^6 bacteria/ml, MHB/PPB mixture, 3 h at 37 °C, plated on LB agar, three biological replicates): 0.8 µM; MBC (Acinetobacter baumannii): 0.8 µM; degradation of pre-formed biofilm [1]: required at least their MBC or higher concentrations; MBC ([1]; 3 h treatment (method: 1/10 MHB), read-out: MBC, Eradication test after 3 h): >3.2 µM; MBC ([1]; 24 h treatment (method: 1/10 MHB), read-out: MBC, Eradication test after 24 h): >3.2 µM; eradication of pre-formed biofilms at sub-MBC concentration ([1]; A. baumannii, as stated in the abstract): not observed"
RLNTTFRPLNFKMLRFWGQ-NH2 [NCR335N1–19],0.5,0.01,0.5,Synergism (< 0.5: synergism),1.6 µM,,Drug A MBC (E. coli; 3 h): 3.125 µM
